In patent US9546172B2, “Pyrazolo[3,4-d]pyrimidine and pyrazolo[2,3-d]pyrimidine compounds as kinase inhibitors” (Pharmacyclics LLC, priority 2011, dated 2017) one finds IC50 data, which are given here for seven molecules.

The term IC50 denotes the point on the concentration scale where inhibition reaches its midpoint.

Assay type in all cases: biochemical
The target in one assay is Lyn (Homo sapiens, UniProt P07948). The assay can be described thus: Lyn kinase inhibition.
For the next assay, the target named is C-src (Homo sapiens, UniProt P12931). The assay can be described thus: C-src kinase inhibition. As to the method: (§1) Btk kinase activity was determined using a time-resolved fluorescence resonance energy transfer (TR-FRET) methodology. Measurements were performed in a reaction volume of 50 μL using 96-well assay plates. […] The reaction was quenched by the addition of 1.2 equivalents of EDTA (relative to divalent cation) in 25 μL of 1× Lance buffer (Perkin-Elmer). Streptavidin-APC (Perkin-Elmer) and Eu-labeled p-Tyr100 antibody (Perkin-Elmer) in 1× Lance buffer were added in a 25 μL volume to give final concentrations of 100 nM and 2.5 nM, respectively, and the mixture was allowed to incubate for one hour. The TR-FRET signal was measured on a multimode plate reader with an excitation wavelength (λEx) of 330 nm and detection wavelengths (λEm) of 615 and 665 nm. Activity was determined by the ratio of the fluorescence at 665 nm to that at 615 nm. For each compound, enzyme activity was measured at various concentrations of compound. Negative control reactions were performed in the absence of inhibitor in replicates of six, and two no-enzyme controls were used to determine baseline fluorescence levels Inhibition constants, Ki(app), were obtained using the program BatchKi (Kuzmic et al. (2000), Anal. Biochem. 286:45-50). IC50s were obtained according to the equation: IC50={Ki(app)/(1+[ATP]/Km^ATP)}+[E]total/2; For all kinases, [ATP]=Km^ATP, [Btk]total=0.5 nM and [Lck]total=6 nM.

Another assay has as its target RET (Homo sapiens, UniProt P07949). The assay can be described thus: RET kinase inhibition.
In the next assay the target is EGFR (Homo sapiens, UniProt P00533). The assay can be described thus: EGFR kinase inhibition.
For the next assay, the target named is T1, Tec (Homo sapiens, UniProt P42680).
T1 sequence (P42680 1-631): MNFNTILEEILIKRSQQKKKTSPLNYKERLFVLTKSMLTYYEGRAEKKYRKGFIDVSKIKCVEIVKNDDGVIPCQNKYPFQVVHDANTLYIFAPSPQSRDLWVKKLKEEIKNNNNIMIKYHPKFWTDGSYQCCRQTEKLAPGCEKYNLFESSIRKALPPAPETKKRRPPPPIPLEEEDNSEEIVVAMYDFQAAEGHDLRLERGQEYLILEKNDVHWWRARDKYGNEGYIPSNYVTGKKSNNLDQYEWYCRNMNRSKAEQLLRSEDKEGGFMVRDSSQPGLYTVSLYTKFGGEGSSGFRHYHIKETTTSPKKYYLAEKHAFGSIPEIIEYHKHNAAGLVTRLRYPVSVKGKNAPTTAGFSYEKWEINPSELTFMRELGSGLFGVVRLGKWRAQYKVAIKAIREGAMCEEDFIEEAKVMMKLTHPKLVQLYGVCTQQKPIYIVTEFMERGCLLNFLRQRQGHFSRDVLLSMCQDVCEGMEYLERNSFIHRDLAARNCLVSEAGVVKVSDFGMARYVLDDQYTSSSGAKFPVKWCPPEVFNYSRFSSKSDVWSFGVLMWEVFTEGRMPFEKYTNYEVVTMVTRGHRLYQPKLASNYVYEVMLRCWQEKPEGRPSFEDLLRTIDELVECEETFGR
The assay can be described thus: Tec kinase inhibition. The method, then: as §1

The next assay concerns the target CSK (Homo sapiens, UniProt P41240). The assay can be described thus: CSK kinase inhibition.
Another assay has as its target BLK (Homo sapiens, UniProt P51451). The assay can be described thus: BLK kinase inhibition. The method, then:
as §1

The next assay addresses T2, BMX (Homo sapiens, UniProt P51813).
T2 sequence (P51813 1-675): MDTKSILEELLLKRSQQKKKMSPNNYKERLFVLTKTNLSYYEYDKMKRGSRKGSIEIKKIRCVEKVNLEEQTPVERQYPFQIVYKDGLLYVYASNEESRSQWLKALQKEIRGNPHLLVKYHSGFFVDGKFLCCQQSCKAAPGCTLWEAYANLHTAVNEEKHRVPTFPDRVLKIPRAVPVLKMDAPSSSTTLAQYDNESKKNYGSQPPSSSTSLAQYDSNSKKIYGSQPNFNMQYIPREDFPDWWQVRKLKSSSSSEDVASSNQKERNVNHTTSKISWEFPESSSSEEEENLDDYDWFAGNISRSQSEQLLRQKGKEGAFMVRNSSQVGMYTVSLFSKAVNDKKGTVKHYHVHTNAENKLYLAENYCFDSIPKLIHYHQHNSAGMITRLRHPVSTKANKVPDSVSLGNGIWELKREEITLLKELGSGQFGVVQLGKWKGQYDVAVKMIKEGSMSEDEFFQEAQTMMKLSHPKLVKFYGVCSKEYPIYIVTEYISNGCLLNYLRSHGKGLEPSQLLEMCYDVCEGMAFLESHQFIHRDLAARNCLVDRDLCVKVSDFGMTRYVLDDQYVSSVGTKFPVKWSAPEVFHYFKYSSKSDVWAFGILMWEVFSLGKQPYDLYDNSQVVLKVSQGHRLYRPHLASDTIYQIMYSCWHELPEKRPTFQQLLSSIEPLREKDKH
The assay can be described thus: BMX kinase inhibition.

For the next assay, the target named is T3, Btk (Homo sapiens, UniProt Q06187).
T3 construct: purified from insect cells as a full-length construct containing a N-terminal 6×-His tag; 6xHis (N); host or cells: insect cells (baculovirus Sf21 in Method B)
The assay can be described thus: Btk in vitro inhibitory activity (one of Methods A, B, C). As to conditions: determined in one of three in vitro assays (Examples 125-127). As to the method: The Btk IC50s of compounds disclosed herein was determined in one of the three in vitro assays described in Examples 125-127.
as §1
Kinase activity is measured in vitro using electrophoretic mobility shift assay. The kinase reactions are assembled in a total volume of 25 μL in 384 well plates. […] The reaction is incubated for one hour and is quenched by the addition of 45 μL of termination buffer (100 mM HEPES, pH7.5, 0.01% Triton X-100, 30 mM EDTA). The terminated reactions are analyzed using 12 channel LabChip® 3000 microfluidic detection instrument (Caliper Life Sciences). The enzymatic phosphorylation of the peptide results in a change in net charge, enabling electrophoretic separation of product from substrate peptide. As substrate and product peptides are separated, two peaks of fluorescence are observed. Change in the relative fluorescence intensity of the substrate and product peaks is the parameter measured, reflecting enzyme activity. In the presence of an inhibitor, the ratio between product and substrate is altered: the signal of the product decreases, while the signal of the substrate increases.
Activity in each sample is determined as the product to sum ratio (PSR): P/(S+P), where P is the peak height of the product peptide and S is the peak height of the substrate peptide. For each compound, enzyme activity is measured at various concentrations (12 concentrations of compound spaced by 3× dilution intervals). Negative control samples (0%-inhibition in the absence of inhibitor) and positive control samples (100%-inhibition, in the presence of 20 mM EDTA) are assembled in replicates of four and are used to calculate %-inhibition values for each inhibitor at each concentration. Percent inhibition (Pinh) is determined using following equation: Pinh=(PSR0%−PSRinh)/(PSR0%−PSR100%)*100, where PSRinh is the product sum ratio in the presence of inhibitor, PSR0% is the average product sum ration in the absence of inhibitor and PSR100% is the average product sum ratio in 100%-inhibition control samples;
The IC50 values of inhibitors are determined by 4 parameter sigmoidal dose-response model fitting of the inhibition curves (Pinh versus inhibitor concentration) using XLfit 4 software.
Human Btk kinase (Genbank accession # NP_000052) was purified from insect cells as a full-length construct containing a N-terminal 6×-His tag. Btk kinase activity was determined using a radiometric filter binding assay. Measurements are performed in a low reaction volume 384-well assay plates. […]

In a further assay the target is Lck (Homo sapiens, UniProt P06239). The assay can be described thus: Lck kinase inhibition. The method, then:
as §1

Chain of Lyn (P07948 whole entry): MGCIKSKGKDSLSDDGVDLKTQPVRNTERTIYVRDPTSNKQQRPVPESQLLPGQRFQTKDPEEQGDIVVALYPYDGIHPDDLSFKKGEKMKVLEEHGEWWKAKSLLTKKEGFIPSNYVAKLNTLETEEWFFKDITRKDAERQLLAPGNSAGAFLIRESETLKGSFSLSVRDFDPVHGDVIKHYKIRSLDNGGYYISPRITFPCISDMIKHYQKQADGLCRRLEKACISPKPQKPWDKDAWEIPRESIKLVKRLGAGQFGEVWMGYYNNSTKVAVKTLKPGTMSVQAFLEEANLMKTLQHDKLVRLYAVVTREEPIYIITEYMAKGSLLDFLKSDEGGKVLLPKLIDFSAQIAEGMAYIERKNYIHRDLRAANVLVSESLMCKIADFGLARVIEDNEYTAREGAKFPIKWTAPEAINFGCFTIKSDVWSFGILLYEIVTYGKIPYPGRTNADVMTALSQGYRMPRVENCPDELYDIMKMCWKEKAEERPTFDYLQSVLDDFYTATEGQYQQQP
Chain of RET (P07949 29-1114): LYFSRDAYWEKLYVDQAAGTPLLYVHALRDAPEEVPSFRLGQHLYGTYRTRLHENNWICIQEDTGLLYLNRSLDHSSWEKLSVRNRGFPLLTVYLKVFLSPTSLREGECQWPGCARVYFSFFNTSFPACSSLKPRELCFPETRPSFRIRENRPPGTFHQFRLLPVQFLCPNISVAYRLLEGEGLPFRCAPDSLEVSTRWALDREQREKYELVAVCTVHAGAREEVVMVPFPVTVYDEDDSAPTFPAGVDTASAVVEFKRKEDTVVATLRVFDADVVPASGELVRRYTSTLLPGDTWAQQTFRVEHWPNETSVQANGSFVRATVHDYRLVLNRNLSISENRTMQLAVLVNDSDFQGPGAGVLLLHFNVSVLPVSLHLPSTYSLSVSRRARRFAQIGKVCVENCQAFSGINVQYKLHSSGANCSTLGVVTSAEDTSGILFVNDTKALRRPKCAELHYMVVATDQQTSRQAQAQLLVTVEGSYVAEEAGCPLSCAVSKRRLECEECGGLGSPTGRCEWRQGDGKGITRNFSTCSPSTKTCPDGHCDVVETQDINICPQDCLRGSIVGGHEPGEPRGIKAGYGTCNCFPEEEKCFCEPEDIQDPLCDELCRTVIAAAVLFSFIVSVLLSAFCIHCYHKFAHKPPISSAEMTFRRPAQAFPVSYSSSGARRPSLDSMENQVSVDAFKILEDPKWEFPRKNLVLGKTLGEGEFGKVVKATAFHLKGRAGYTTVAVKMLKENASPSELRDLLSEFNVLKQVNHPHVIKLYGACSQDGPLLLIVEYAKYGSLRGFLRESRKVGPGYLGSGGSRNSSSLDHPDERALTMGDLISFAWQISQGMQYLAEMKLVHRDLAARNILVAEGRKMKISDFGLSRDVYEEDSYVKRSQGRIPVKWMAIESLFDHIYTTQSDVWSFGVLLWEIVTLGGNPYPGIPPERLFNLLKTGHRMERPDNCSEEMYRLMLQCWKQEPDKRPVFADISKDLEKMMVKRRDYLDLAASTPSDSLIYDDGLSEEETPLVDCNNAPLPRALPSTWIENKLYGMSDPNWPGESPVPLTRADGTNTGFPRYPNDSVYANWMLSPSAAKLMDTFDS
Chain of EGFR (P00533 25-1210): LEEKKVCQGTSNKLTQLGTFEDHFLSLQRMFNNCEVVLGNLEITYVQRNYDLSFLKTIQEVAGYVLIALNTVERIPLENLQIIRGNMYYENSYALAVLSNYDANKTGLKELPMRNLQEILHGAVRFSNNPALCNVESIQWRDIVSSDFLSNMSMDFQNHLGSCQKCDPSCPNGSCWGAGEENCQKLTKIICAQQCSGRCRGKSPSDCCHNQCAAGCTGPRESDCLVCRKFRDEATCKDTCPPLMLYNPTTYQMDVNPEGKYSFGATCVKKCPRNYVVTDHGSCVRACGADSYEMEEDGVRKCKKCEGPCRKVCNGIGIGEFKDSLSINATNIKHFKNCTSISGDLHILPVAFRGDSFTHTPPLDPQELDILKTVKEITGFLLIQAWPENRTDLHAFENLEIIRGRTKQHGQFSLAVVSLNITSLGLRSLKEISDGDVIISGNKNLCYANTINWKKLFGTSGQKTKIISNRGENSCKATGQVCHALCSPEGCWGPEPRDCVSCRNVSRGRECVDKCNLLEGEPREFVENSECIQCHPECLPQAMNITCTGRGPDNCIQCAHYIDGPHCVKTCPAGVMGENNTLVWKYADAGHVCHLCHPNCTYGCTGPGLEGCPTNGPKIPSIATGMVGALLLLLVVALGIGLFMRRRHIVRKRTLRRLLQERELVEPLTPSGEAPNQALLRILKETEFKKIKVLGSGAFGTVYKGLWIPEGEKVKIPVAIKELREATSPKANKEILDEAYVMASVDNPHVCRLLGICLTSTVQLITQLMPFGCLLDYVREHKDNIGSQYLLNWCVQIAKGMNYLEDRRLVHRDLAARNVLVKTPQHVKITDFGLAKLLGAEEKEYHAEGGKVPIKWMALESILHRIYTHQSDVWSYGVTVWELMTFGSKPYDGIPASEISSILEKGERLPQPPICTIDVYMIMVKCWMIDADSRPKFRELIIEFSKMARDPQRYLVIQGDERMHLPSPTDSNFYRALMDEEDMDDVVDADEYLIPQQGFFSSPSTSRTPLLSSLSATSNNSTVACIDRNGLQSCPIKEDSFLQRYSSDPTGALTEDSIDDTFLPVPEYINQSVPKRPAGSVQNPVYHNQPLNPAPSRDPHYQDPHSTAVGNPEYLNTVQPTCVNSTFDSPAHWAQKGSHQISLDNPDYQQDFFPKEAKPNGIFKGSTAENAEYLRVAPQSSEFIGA
Chain of C-src (P12931 whole entry): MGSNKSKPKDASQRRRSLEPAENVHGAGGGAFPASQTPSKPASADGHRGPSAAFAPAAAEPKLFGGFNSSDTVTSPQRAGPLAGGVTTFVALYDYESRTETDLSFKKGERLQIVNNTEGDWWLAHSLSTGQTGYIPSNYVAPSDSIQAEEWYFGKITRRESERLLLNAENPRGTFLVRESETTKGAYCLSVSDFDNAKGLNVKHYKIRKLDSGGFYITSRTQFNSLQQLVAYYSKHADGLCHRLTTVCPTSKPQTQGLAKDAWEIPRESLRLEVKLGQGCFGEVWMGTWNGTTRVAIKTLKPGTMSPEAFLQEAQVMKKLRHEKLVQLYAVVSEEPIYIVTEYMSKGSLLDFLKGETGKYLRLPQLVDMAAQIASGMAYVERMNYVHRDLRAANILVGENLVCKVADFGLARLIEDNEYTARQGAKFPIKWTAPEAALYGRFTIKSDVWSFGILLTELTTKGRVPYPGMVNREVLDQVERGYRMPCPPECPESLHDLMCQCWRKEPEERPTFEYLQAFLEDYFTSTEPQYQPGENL
Chain of Lck (P06239 whole entry): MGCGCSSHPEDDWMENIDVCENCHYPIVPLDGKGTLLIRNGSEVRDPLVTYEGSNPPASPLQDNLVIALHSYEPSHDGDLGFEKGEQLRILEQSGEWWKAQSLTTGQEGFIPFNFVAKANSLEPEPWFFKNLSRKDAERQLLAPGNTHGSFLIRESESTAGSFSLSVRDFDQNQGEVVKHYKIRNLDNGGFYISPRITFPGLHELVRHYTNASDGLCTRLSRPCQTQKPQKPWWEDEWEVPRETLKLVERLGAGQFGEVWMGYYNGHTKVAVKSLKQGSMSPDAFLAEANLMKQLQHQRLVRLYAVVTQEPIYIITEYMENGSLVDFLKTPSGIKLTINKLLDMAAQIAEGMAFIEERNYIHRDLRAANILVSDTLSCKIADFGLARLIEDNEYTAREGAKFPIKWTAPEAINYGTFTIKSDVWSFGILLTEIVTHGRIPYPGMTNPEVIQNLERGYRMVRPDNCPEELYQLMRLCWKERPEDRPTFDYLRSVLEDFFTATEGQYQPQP
T3 sequence (Q06187 whole entry): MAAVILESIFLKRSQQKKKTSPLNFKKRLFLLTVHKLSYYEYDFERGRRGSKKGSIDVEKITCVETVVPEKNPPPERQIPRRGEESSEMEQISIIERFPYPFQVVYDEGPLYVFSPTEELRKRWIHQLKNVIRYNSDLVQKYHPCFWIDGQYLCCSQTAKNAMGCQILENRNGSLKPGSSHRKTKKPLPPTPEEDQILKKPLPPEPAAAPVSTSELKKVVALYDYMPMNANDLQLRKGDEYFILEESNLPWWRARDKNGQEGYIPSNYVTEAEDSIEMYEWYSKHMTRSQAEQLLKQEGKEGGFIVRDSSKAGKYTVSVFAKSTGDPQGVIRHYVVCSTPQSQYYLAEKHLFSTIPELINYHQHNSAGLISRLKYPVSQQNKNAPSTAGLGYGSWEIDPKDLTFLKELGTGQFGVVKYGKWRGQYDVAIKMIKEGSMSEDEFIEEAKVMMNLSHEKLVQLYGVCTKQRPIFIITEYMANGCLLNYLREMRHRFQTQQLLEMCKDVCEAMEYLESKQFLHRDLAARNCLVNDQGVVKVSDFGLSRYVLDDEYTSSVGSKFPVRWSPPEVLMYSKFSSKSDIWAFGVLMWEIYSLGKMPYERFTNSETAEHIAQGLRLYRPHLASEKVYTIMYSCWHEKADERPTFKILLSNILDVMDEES
Chain of CSK (P41240 whole entry): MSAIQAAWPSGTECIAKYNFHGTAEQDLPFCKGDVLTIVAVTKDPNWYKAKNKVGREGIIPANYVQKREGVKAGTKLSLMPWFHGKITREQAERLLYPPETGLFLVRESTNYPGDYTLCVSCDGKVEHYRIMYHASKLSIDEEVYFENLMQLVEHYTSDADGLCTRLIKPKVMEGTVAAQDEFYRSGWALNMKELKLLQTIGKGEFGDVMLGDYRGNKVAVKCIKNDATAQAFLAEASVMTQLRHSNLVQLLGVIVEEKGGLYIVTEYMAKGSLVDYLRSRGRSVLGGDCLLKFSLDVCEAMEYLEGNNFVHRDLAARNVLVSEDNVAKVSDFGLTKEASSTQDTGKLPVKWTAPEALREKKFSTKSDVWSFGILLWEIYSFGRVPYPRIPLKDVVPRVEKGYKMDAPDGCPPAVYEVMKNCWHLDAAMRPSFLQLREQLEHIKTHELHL

For `CN(C)C/C=C/C(=O)N1CC[C@@H](n2nc(-c3ccc(Cl)cc3)c3c(N)ncnc32)C1` [Example 1, (E)-1-((R)-3-(4-amino-3-(4-chlorophenyl)-1H-pyrazolo[3,4-d]pyrimidin-1-yl)pyrrolidin-1-yl)-4-(dimethylamino)but-2-en-1-one], the IC50 is 100 to 1000 nM at Lyn; below 100 nM at C-src; 100 to 1000 nM against RET; 100 to 1000 nM against EGFR; below 100 nM against Tec; 100 to 1000 nM at CSK. In addition, the IC50 was below 100 nM against BLK, below 100 nM on BMX, below 100 nM against Btk and 100 to 1000 nM against Lck.
As for `COCCOc1ccc(-c2nn([C@@H]3CCN(C(=O)/C=C/CN(C)C)C3)c3ncnc(N)c23)cc1` [Example 2, (E)-1-((R)-3-(4-amino-3-(4-(2-methoxyethoxy)phenyl)-1H-pyrazolo[3,4-d]pyrimidin-1-yl)pyrrolidin-1-yl)-4-(dimethylamino)but-2-en-1-one], the IC50 was above 1000 nM against Lyn; above 1000 nM against C-src; above 1000 nM against RET; 100 to 1000 nM on Tec; above 1000 nM against CSK; below 100 nM against BLK. The IC50 is below 100 nM against BMX, below 100 nM on Btk and above 1000 nM at Lck.
Turning to `CN(C)C/C=C/C(=O)N1CC[C@@H](n2nc(-c3ccc(F)cc3)c3c(N)ncnc32)C1` [Example 3, (R,E)-1-(3-(4-amino-3-(4-fluorophenyl)-1H-pyrazolo[3,4-d]pyrimidin-1-yl)pyrrolidin-1-yl)-4-(dimethylamino)but-2-en-1-one], the IC50 is above 1000 nM at Lyn; 100 to 1000 nM against C-src; above 1000 nM against RET; above 1000 nM at EGFR; below 100 nM at Tec; above 1000 nM on CSK. Further, the IC50 at BLK is 100 to 1000 nM; against BMX, below 100 nM; against Btk, below 100 nM; against Lck it was above 1000 nM.
With `Cc1ccc(-c2nn([C@@H]3CCN(C(=O)/C=C/CN(C)C)C3)c3ncnc(N)c23)cc1` [Example 4, (R,E)-1-(3-(4-amino-3-p-tolyl-1H-pyrazolo[3,4-d]pyrimidin-1-yl)pyrrolidin-1-yl)-4-(dimethylamino)but-2-en-1-one], the IC50 against Lyn was 100 to 1000 nM; at C-src, 100 to 1000 nM; on RET, 100 to 1000 nM; on EGFR, 100 to 1000 nM; against Tec, below 100 nM; on CSK, above 1000 nM. Also, the IC50 against BLK is below 100 nM; against BMX it was below 100 nM; on Btk it was below 100 nM; at Lck, 100 to 1000 nM.
Turning to `CN(C)C/C=C/C(=O)Nc1ccc(-n2nc(-c3ccc(Cl)cc3)c3c(N)ncnc32)cc1` [Example 17, (E)-N-(4-(4-amino-3-(4-chlorophenyl)-1H-pyrazolo[3,4-d]pyrimidin-1-yl)phenyl)-4-(dimethylamino)but-2-enamide], the IC50 on Lyn is below 100 nM; on C-src, below 100 nM; against EGFR, below 100 nM; on Tec, below 100 nM; at CSK, 100 to 1000 nM; against BLK it was below 100 nM. Besides, the IC50 at BMX, at Btk and at Lck was below 100 nM each time.
Consider `COc1cc(-c2nn(-c3cccc(N(C)C(=O)/C=C/CN(C)C4CC4)c3)c3ncnc(N)c23)ccc1C` [Example 24, (E)-N-(3-(4-amino-3-(3-methoxy-4-methylphenyl)-1H-pyrazolo[3,4-d]pyrimidin-1-yl)phenyl)-4-(cyclopropyl(methyl)amino)-N-methylbut-2-enamide], for which the IC50 at Lyn was below 100 nM; against C-src, 100 to 1000 nM; against RET it was above 1000 nM; against Tec, below 100 nM; against CSK, above 1000 nM; against BLK it was below 100 nM. Moreover, the IC50 was below 100 nM at BMX, below 100 nM against Btk and 100 to 1000 nM against Lck.
On to `CN(C(=O)/C=C/CN(C)C1CC1)c1cccc(-n2nc(-c3ccc(Cl)cc3)c3c(N)ncnc32)c1` [Example 25, (E)-N-(3-(4-amino-3-(4-chlorophenyl)-1H-pyrazolo[3,4-d]pyrimidin-1-yl)phenyl)-4-(cyclopropyl(methyl)amino)-N-methylbut-2-enamide], for which the IC50 on Lyn is above 1000 nM; on C-src, 100 to 1000 nM; against EGFR, below 100 nM; against Tec, below 100 nM; at CSK, above 1000 nM; against BLK, 100 to 1000 nM. For the same molecule, the IC50 on BMX is below 100 nM; against Btk it was below 100 nM; against Lck it was above 1000 nM.
